The results in this text go back to US9902702B2, “Spirocycloheptanes as inhibitors of rock” (BRISTOL-MYERS SQUIBB COMPANY, priority 2014, dated 2018).

Structures can show the parent of a compound that is named as a salt.

In this experiment the target is ROCK2 (Homo sapiens, UniProt O75116). The experiment can be described thus: ROCK assay: phosphorylation of FITC peptide substrate, LABCHIP 3000 mobility shift. The class given is biochemical. The following applies: 5 μM ATP, 1.5 μM peptide substrate; read-out: ROCK2 Activity (ROCK IC50 range). Summed up: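 IC50 values come from curve-fitting percent kinase inhibition across a compound dilution series. The reaction is started with Rho kinase variant in HEPES pH 7.5 buffer with MgCl2, Brij-35 and DTT, with 5 μM ATP, 1.5 μM FITC-labelled peptide and under 2% DMSO. After EDTA quench, product and substrate are separated by microfluidic mobility shift.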
ROCK2, sequence (O75116 whole entry, species assumed): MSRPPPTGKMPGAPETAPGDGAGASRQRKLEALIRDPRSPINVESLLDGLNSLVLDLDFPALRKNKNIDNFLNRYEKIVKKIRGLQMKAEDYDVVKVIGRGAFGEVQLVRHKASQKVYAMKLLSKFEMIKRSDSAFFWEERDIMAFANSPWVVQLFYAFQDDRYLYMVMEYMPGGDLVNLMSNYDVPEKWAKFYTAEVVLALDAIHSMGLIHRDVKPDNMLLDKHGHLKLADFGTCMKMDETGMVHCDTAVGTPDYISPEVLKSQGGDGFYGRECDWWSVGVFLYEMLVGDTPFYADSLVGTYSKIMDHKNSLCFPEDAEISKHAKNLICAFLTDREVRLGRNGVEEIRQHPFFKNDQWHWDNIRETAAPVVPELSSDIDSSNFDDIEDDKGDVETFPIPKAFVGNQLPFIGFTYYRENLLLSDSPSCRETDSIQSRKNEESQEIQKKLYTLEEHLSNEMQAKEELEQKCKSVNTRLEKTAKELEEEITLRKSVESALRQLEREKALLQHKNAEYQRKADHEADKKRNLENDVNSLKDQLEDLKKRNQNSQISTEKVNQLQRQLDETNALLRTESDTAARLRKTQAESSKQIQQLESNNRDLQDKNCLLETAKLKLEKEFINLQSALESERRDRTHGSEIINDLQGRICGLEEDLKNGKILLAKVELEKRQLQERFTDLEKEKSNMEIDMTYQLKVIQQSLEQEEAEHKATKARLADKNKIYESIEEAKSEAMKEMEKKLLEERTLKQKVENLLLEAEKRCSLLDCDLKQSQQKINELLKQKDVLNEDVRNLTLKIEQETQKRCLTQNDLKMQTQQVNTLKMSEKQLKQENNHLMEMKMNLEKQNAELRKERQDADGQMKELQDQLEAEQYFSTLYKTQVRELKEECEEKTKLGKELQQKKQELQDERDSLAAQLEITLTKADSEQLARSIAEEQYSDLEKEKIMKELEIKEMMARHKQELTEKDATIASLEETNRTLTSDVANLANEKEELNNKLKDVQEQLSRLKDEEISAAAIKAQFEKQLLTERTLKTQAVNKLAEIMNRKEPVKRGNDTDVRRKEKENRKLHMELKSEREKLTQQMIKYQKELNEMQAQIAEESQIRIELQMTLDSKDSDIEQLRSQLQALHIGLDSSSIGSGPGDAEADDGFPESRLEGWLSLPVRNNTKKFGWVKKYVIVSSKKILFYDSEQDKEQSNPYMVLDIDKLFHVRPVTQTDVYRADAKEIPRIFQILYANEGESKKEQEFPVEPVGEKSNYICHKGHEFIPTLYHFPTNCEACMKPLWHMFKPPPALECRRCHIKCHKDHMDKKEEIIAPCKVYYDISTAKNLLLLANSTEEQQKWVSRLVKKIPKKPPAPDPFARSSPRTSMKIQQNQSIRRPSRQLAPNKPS
For orientation: IC50 means the concentration needed to halve the response being measured. As to `CC(C)(O)COc1ccc2c(C(=O)NC3CC4(C3)CC(c3c[nH]c(=O)c5ccccc35)C4)cnn2c1` (stereo not shown) [Example 271, 6-(2-hydroxy-2-methylpropoxy)-N-(6-(1-oxo-1,2-dihydroisoquinolin-4-yl)spiro[3.3]heptan-2-yl)pyrazolo[1,5-a]pyridine-3-carboxamide], the IC50 was 2.01 to 5 nM.
The result for `CC(C)(C)OC(=O)N1CCc2c(C(=O)N[C@H]3CC4(C3)C[C@H](c3n[nH]c(=O)c5ccccc53)C4)csc2C1` (stereo partly drawn) [Example 272, tert-butyl 3-(((aR)-6-(4-oxo-3,4-dihydrophthalazin-1-yl)spiro[3.3]heptan-2-yl)carbamoyl)-4,5-dihydrothieno[2,3-c]pyridine-6(7H)-carboxylate] reads 5.1 to 15 nM; that for `CC(=O)N1CCc2c(C(=O)N[C@H]3CC4(C3)C[C@H](c3n[nH]c(=O)c5ccccc53)C4)csc2C1` (stereo partly drawn) [Example 274, 6-acetyl-N-((aR)-6-(4-oxo-3,4-dihydrophthalazin-1-yl)spiro[3.3]heptan-2-yl)-4,5,6,7-tetrahydrothieno[2,3-c]pyridine-3-carboxamide], 5.1 to 15 nM; that for `COC(=O)N1CCc2c(C(=O)N[C@H]3CC4(C3)C[C@H](c3n[nH]c(=O)c5ccccc53)C4)csc2C1` (stereo partly drawn) [Example 275, methyl 3-(((aR)-6-(4-oxo-3,4-dihydrophthalazin-1-yl)spiro[3.3]heptan-2-yl)carbamoyl)-4,5-dihydrothieno[2,3-c]pyridine-6(7H)-carboxylate], 5.1 to 15 nM.
Under `CS(=O)(=O)N1CCc2c(C(=O)N[C@H]3CC4(C3)C[C@H](c3n[nH]c(=O)c5ccccc53)C4)csc2C1` (stereo partly drawn) [Example 276, 6-(methylsulfonyl)-N-((aR)-6-(4-oxo-3,4-dihydrophthalazin-1-yl)spiro[3.3]heptan-2-yl)-4,5,6,7-tetrahydrothieno[2,3-c]pyridine-3-carboxamide] stands 15.1 to 100 nM; under `Cn1cc(-c2ccc3c(C(=O)N[C@H]4CC5(C4)C[C@H](c4n[nH]c(=O)c6ccccc64)C5)onc3c2)cn1` (stereo partly drawn) [Example 277, 6-(1-methyl-1H-pyrazol-4-yl)-N-((aR)-6-(4-oxo-3,4-dihydrophthalazin-1-yl)spiro[3.3]heptan-2-yl)benzo[c]isoxazole-3-carboxamide], 0.2 to 2 nM.
Regarding `CC(C)(O)Cn1nc(C(=O)NC2CC3(C2)CC(c2n[nH]c(=O)n4cccc24)C3)c2ccccc21` (stereo not shown) [Example 278, 1-(2-hydroxy-2-methylpropyl)-N-(6-(4-oxo-3,4-dihydropyrrolo[1,2-d][1,2,4]triazin-1-yl)spiro[3.3]heptan-2-yl)-1H-indazole-3-carboxamide, TFA], the IC50 fell in the range of 5.1 to 15 nM.
The result for `CC(C)(O)COc1ccc2c(C(=O)NC3CC4(C3)CC(c3n[nH]c(=O)n5cccc35)C4)cnn2c1` (stereo not shown) [Example 279, 6-(2-hydroxy-2-methylpropoxy)-N-(6-(4-oxo-3,4-dihydropyrrolo[1,2-d][1,2,4]triazin-1-yl)spiro[3.3]heptan-2-yl)pyrazolo[1,5-a]pyridine-3-carboxamide, TFA] reads 2.01 to 5 nM; that for `Cn1nc(C(=O)NC2CC3(C2)CC(c2n[nH]c(=O)n4cccc24)C3)c2ccccc21` (stereo not shown) [Example 280, 1-methyl-N-(6-(4-oxo-3,4-dihydropyrrolo[1,2-d][1,2,4]triazin-1-yl)spiro[3.3]heptan-2-yl)-1H-indazole-3-carboxamide, TFA], 5.1 to 15 nM; that for `Cc1ccn2c(=O)[nH]nc(C3CC4(CC(NC(=O)c5cnn6cc(OCC(C)(C)O)ccc56)C4)C3)c12` (stereo not shown) [Example 281, 6-(2-hydroxy-2-methylpropoxy)-N-(6-(8-methyl-4-oxo-3,4-dihydropyrrolo[1,2-d][1,2,4]triazin-1-yl)spiro[3.3]heptan-2-yl)pyrazolo[1,5-a]pyridine-3-carboxamide, TFA], 5.1 to 15 nM.
Under `O=C(NC1CC2(C1)CC(c1n[nH]c(=O)c3ccccc13)C2)c1cnn2cccnc12` [Example 282, N-((aR)-6-(4-oxo-3,4-dihydrophthalazin-1-yl)spiro[3.3]heptan-2-yl)pyrazolo[1,5-a]pyrimidine-3-carboxamide] stands 100 to 2100 nM; under `Cc1cc(C)cc(Nc2ccc3ncc(C(=O)NC4CC5(C4)CC(c4n[nH]c(=O)c6ccccc46)C5)n3n2)c1` [Example 283, 6-((3,5-dimethylphenyl)amino)-N-((aR)-6-(4-oxo-3,4-dihydrophthalazin-1-yl)spiro[3.3]heptan-2-yl)imidazo[1,2-b]pyridazine-3-carboxamide], 100 to 2100 nM; under `O=C(N[C@H]1CC2(C1)C[C@H](c1n[nH]c(=O)c3ccccc31)C2)c1onc2cc(Br)ccc12` (stereo partly drawn) [Example 284, 6-bromo-N-((aR)-6-(4-oxo-3,4-dihydrophthalazin-1-yl)spiro[3.3]heptan-2-yl)benzo[c]isoxazole-3-carboxamide], 2.01 to 5 nM.
For `CCn1nccc1C(=O)NC1CC2(C1)CC(c1n[nH]c(=O)c3ccccc13)C2` [Example 285, 1-ethyl-N-((aR)-6-(4-oxo-3,4-dihydrophthalazin-1-yl)spiro[3.3]heptan-2-yl)-1H-pyrazole-5-carboxamide], the IC50 fell in the range of 15.1 to 100 nM.
Take `O=C(NC1CC2(C1)CC(c1n[nH]c(=O)c3ccccc13)C2)c1ccnn1C(F)F` [Example 286, 1-(difluoromethyl)-N-((aR)-6-(4-oxo-3,4-dihydrophthalazin-1-yl)spiro[3.3]heptan-2-yl)-1H-pyrazole-5-carboxamide]: the IC50 was in the range of 15.1 to 100 nM.
The result for `CC(C)(O)COc1ccc2c(C(=O)NC3CC4(C3)CC(c3n[nH]c(=O)c5ccccc35)C4)onc2c1` [Example 287, 6-(2-hydroxy-2-methylpropoxy)-N-((aR)-6-(4-oxo-3,4-dihydrophthalazin-1-yl)spiro[3.3]heptan-2-yl)benzo[c]isoxazole-3-carboxamide, TFA] reads 0.2 to 2 nM; that for `O=C(NC1CC2(C1)CC(c1n[nH]c(=O)c3ccccc13)C2)c1nn(-c2cccc(Cl)c2)c2c1CCNC2=O` [Example 288, 1-(3-chlorophenyl)-7-oxo-N-((aR)-6-(4-oxo-3,4-dihydrophthalazin-1-yl)spiro[3.3]heptan-2-yl)-4,5,6,7-tetrahydro-1H-pyrazolo[3,4-c] pyridine-3-carboxamide], 15.1 to 100 nM.
Take `COc1ccc(-n2nc(C(=O)NC3CC4(C3)CC(c3n[nH]c(=O)c5ccccc35)C4)c3c2C(=O)NCC3)cc1` [Example 289, 1-(4-methoxyphenyl)-7-oxo-N-((aR)-6-(4-oxo-3,4-dihydrophthalazin-1-yl)spiro[3.3]heptan-2-yl)-4,5,6,7-tetrahydro-1H-pyrazolo[3,4-c]pyridine-3-carboxamide]: the IC50 lay within 15.1 to 100 nM.
Under `O=C(NC1CC2(C1)CC(c1n[nH]c(=O)c3ccccc13)C2)c1noc2ccc(Cl)cc12` [Example 290, 5-chloro-N-((aR)-6-(4-oxo-3,4-dihydrophthalazin-1-yl)spiro[3.3]heptan-2-yl)benzo[d]isoxazole-3-carboxamide] stands 2.01 to 5 nM; under `CC(=O)Nc1ccc2c(C(=O)NC3CC4(C3)CC(c3n[nH]c(=O)c5ccccc35)C4)noc2c1` [Example 291, 6-acetamido-N-((aR)-6-(4-oxo-3,4-dihydrophthalazin-1-yl)spiro[3.3]heptan-2-yl)benzo[d]isoxazole-3-carboxamide], 5.1 to 15 nM; under `[H][C@]1(c2n[nH]c(=O)c3ccccc32)C[C@@]2(C[C@H](NC(=O)c3ncn4ccccc34)C2)C1` (stereo partly drawn) [Example 292, N-((aR)-6-(4-oxo-3,4-dihydrophthalazin-1-yl)spiro[3.3]heptan-2-yl)imidazo[1,5-a]pyridine-1-carboxamide], 15.1 to 100 nM.
Consider `[H][C@]1(c2n[nH]c(=O)c3ccccc32)C[C@@]2(C[C@H](NC(=O)c3cc4cc(OC)ccc4n3C)C2)C1` (stereo partly drawn) [Example 293, 5-methoxy-1-methyl-N-((aR)-6-(4-oxo-3,4-dihydrophthalazin-1-yl)spiro[3.3]heptan-2-yl)-1H-indole-2-carboxamide], for which the IC50 fell in the range of 15.1 to 100 nM.
The result for `[H][C@]1(c2n[nH]c(=O)c3ccccc32)C[C@@]2(C[C@H](NC(=O)c3cc4ccccc4n3C)C2)C1` (stereo partly drawn) [Example 294, 1-methyl-N-((aR)-6-(4-oxo-3,4-dihydrophthalazin-1-yl)spiro[3.3]heptan-2-yl)-1H-indole-2-carboxamide] reads 5.1 to 15 nM; that for `[H][C@]1(c2n[nH]c(=O)c3ccccc32)C[C@@]2(C[C@H](NC(=O)c3cc4cccc(OC)c4[nH]3)C2)C1` (stereo partly drawn) [Example 295, 7-methoxy-N-((aR)-6-(4-oxo-3,4-dihydrophthalazin-1-yl)spiro[3.3]heptan-2-yl)-1H-indole-2-carboxamide], 5.1 to 15 nM.
The result for `[H][C@]1(c2n[nH]c(=O)c3ccccc32)C[C@@]2(C[C@H](NC(=O)c3nc4c(s3)CN(C)CC4)C2)C1` (stereo partly drawn) [Example 296, 5-methyl-N-((aR)-6-(4-oxo-3,4-dihydrophthalazin-1-yl)spiro[3.3]heptan-2-yl)-4,5,6,7-tetrahydrothiazolo [5,4-c]pyridine-2-carboxamide] reads 100 to 2100 nM; that for `[H][C@]1(c2n[nH]c(=O)c3ccccc32)C[C@@]2(C[C@H](NC(=O)c3cc4c(Cl)cccc4n3C)C2)C1` (stereo partly drawn) [Example 297, 4-chloro-1-methyl-N-((aR)-6-(4-oxo-3,4-dihydrophthalazin-1-yl)spiro[3.3]heptan-2-yl)-1H-indole-2-carboxamide], 2.01 to 5 nM.
Under `[H][C@]1(c2n[nH]c(=O)c3ccccc32)C[C@@]2(C[C@H](NC(=O)c3cc4ccccc4[nH]3)C2)C1` (stereo partly drawn) [Example 298, N-((aR)-6-(4-oxo-3,4-dihydrophthalazin-1-yl)spiro[3.3]heptan-2-yl)-1H-indole-2-carboxamide] stands 5.1 to 15 nM; under `[H][C@]1(c2n[nH]c(=O)c3ccccc32)C[C@]2(C[C@@H](NC(=O)c3c(C)nc4ccccn34)C2)C1` (stereo partly drawn) [Example 299, 2-methyl-N-((aR)-6-(4-oxo-3,4-dihydrophthalazin-1-yl)spiro[3.3]heptan-2-yl)imidazo[1,2-a]pyridine-3-carboxamide], 15.1 to 100 nM.
